In patent US20040127518A1, “Modulation of anxiety through blockade of anandamide hydrolysis” (priority 2002, published 2004):

Key:
CB2 receptor = CB2 receptor (Homo sapiens, UniProt P34972); assay: CB2 binding assay in CB2-overexpressing Chinese hamster ovary cells, [3H]WIN-55212-2
Excerpt: (§4) We prepared cell fractions from rat brain homogenates, and assayed membrane FAAH activity and cytosol MGL activity using anandamide [ethanolamine-3H] (American Radiolabeled Chemicals, ARC (St. Louis Mo.), 60 Ci/mmol) and 2-mono-oleoyl-glycerol-[glycerol-1,2,3^−3H] (ARC, St. Louis Mo., 20 Ci/mmol), respectively, as substrates (Dinh, T. Proc. Natl. Acad. Sci. U.S.A. (2002)). We conducted [^3H]anandamide transport assays in human astrocytoma cells (Piomelli, D. et al., Proc. Natl. Acad. Sci. U.S.A., 96, 5802-5807 (1999)); CB1 and CB2 binding assays in rat cerebellar membranes and CB2-overexpressing Chinese hamster ovary cells (Receptor Biology-Perkin Elmer, Wellesley, Mass.), respectively, using [^3H]WIN-55212-2 (NEN-Dupont, Boston, Mass., 40-60 Ci/mmol) as a ligand (Devane, W. A. et al. Science, 258, 1946-1949 (1992)); cholinesterase assays with a commercial kit (Sigma, St. Louis, Mo.), using purified enzymes (electric eel acetylcholinesterase type V-S and horse serum cholinesterase; both from Sigma, St. Louis, Mo.) and following manufacturer's instructions.

FAAH [1] = molecular target: T1, FAAH (Rattus norvegicus, UniProt P97612); assay: FAAH-catalyzed hydrolysis of [3H]anandamide by intact cortical neurons in primary cultures; type: cell-based; conditions: n=8, read-out: IC50, hydrolysis of exogenous [3H]anandamide
T1 sequence (P97612 1-579): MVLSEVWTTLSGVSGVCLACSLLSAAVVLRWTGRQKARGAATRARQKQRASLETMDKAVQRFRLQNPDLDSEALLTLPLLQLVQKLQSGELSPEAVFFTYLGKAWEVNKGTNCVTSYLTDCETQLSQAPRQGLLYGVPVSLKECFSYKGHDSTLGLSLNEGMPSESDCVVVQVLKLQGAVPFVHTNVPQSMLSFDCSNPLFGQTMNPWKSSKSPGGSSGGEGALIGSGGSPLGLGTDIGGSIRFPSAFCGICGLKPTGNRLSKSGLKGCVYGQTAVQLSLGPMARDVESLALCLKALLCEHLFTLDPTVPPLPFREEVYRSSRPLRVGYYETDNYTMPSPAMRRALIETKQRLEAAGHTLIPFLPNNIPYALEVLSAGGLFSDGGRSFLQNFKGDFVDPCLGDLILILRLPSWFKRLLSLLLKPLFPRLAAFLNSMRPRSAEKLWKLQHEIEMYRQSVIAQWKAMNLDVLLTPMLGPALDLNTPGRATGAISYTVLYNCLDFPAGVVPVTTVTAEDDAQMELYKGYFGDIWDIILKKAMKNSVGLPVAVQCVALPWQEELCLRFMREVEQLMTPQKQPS

[2] = tested on: panel of 21 receptors, ion channels and neurotransmitter transporters; assay: Panel of 21 receptors, ion channels and neurotransmitter transporters; type: binding; conditions: 10 μM; data not shown
[3] = Food intake in free-feeding rats; type: in vivo, rat; conditions: UCM532 10 mg kg-1 i.p.; UCM597 0.3 mg kg-1 i.p.; data not shown
Protocol: We recorded food intake in free-feeding rats by using an automated system (Scipro Inc., New York). Rats were acclimated to the test cages for three days prior to the tests. Each test began at the onset of the dark phase and lasted for 24 hours.

[4] = Body temperature (rectal probe); type: in vivo; conditions: UCM532 10 mg kg-1 i.p.; UCM597 0.3 mg kg-1 i.p.
Excerpt: (§1) We dissolved all compounds in saline/Tween 80/polyethylenglycol (90/5/5) and administered them by i.p. injection immediately before tests. We measured body temperature with a rectal probe (Type T, Copper-Costantan Thermocouple-Physitemp Instruments INC, Clifton, N.J.) connected to a digital thermometer (model BAT-12 Physitemp Instruments INC, Clifton, N.J.); and catalepsy using the procedure described in Tseng and Craft (Tseng, A. H. et al., Eur. J. Pharmacol., 430, 41-47 (2001)).

[5] = Isolation-induced ultrasonic vocalization emission in rat pups; type: in vivo; conditions: 5 mg kg-1
[6] = molecular target: T2, electric eel acetylcholinesterase (Electrophorus electricus, UniProt O42275)
Excerpt: as §4

Catalepsy = type: in vivo; conditions: UCM532 10 mg kg-1 i.p.; UCM597 0.3 mg kg-1 i.p.; data not shown
Excerpt: as §1

[7] = molecular target: horse plasma butyryl cholinesterase (Equus caballus, UniProt P81908); assay: Cholinesterase assay with commercial kit, purified enzyme
Excerpt: as §4

rat cortical neurons = assay: Transport, accumulation and release of non-metabolized [3H]anandamide in cortical neurons; type: cell-based
[8] = molecular target: T3, rat brain monoglyceride lipase (MGL) (Rattus norvegicus, UniProt Q8R431); assay: Cytosol MGL activity, 2-mono-oleoyl-glycerol as substrate
T3 sequence (Q8R431 1-303): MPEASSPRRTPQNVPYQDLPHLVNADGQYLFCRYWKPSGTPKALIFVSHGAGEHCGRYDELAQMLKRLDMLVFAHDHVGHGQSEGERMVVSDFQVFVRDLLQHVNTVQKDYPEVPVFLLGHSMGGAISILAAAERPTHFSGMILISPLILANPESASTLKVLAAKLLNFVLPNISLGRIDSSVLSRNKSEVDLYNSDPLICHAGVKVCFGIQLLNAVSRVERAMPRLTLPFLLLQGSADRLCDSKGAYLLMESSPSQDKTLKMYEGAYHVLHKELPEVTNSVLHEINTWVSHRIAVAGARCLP
Excerpt: as §4

anandamide transport = assay: [3H]anandamide transport assay in human astrocytoma cells
Excerpt: as §4

Mouse formalin test = type: in vivo; conditions: dose not stated, data not shown
Protocol: (§2) We dissolved FAAH inhibitors in polyethyleneglycol/water (1/1) and rimonabant in saline. Formalin and hot-plate assays were carried out in the mouse, as described (Beltramo, M. et al., FEBS Lett., 403, 263-267 (1997)).
(§3) The compounds exerted, however, moderate antinociceptive effects in two models of acute pain.

FAAH [9] = molecular target: T1, FAAH; assay: biochemical; type: biochemical; set-up: from tissue; host or cells: rat brain (membrane fraction of homogenate; Wistar rats)
[10] = molecular target: T2, electric eel acetylcholinesterase; assay: biochemical
Excerpt: as §4

Mouse hot-plate test = type: in vivo; conditions: dose not stated, data not shown
Protocol: as §2, §3

brain FAAH activity = molecular target: T4, brain FAAH activity (Rattus norvegicus, UniProt P97612); assay: Brain FAAH activity after systemic (i.p.) administration; type: in vivo; conditions: ip, six experiments, read-out: half-maximal inhibition of brain FAAH activity (ID50)
T4 construct: from tissue; host or cells: rat brain (membrane fraction of homogenate; Wistar rats)
T4 sequence (P97612 1-579): T1 sequence (P97612 1-579)

horse plasma butyryl cholinesterase, sequence (P81908 whole entry): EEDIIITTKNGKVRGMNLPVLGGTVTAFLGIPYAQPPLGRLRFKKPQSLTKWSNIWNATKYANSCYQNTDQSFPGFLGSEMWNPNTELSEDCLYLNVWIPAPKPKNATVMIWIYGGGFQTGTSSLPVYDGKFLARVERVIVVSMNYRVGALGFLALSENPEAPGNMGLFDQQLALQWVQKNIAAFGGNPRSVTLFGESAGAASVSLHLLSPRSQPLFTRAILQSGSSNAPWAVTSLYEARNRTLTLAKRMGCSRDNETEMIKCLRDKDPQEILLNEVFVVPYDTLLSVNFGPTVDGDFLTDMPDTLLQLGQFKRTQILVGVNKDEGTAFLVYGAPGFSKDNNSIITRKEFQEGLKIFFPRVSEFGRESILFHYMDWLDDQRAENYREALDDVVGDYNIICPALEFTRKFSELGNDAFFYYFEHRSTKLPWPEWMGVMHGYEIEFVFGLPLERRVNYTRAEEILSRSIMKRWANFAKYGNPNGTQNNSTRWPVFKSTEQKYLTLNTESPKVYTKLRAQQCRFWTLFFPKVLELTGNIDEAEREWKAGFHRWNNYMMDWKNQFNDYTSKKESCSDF
CB2 receptor, sequence (P34972 whole entry): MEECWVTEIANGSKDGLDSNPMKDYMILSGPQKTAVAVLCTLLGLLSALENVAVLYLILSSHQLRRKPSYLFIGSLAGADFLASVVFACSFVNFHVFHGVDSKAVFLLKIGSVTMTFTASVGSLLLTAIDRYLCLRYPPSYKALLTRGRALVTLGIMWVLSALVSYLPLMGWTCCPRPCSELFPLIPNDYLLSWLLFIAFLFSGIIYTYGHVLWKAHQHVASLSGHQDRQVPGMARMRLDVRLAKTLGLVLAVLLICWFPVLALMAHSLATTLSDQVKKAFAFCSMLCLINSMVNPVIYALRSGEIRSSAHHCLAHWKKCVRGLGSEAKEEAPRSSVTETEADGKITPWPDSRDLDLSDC
T2 sequence (O42275 whole entry): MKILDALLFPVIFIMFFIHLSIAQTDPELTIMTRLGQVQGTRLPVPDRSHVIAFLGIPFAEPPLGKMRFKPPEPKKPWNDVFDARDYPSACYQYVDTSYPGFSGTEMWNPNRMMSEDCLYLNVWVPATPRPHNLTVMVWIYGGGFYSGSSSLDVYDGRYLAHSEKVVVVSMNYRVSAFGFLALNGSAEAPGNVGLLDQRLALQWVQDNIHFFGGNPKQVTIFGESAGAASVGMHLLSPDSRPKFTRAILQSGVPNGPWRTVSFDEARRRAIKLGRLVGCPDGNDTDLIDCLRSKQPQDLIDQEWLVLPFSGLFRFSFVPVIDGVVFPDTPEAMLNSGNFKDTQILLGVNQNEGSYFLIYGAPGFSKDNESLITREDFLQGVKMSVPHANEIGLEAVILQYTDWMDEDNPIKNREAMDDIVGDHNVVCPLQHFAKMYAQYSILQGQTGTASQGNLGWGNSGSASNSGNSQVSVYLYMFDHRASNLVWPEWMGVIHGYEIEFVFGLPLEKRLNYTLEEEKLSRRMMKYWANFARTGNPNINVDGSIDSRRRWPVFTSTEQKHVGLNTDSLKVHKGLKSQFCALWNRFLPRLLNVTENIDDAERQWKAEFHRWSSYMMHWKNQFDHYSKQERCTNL

Question: Which results are given for CCCCNC(=O)Oc1ccc(OCc2ccccc2)cc1 [UCM532, n-Butylcarbamic acid 4-benzyloxyphenyl ester]?
Answer: effect on binding of a high-affinity ligand to CB2 (in words) (CB2 receptor): no effect; CB2: maximal concentration of FAAH inhibitor tested (CB2 receptor; Table 2): >300 µM; CB2 SI (maximal concentration tested/IC50 for FAAH) (CB2 receptor; Table 2): ≧1000; IC50 (FAAH [1]): 214 ± 79 nM; interaction with panel of 21 receptors, ion channels and transporters [2]: did not significantly interact; hyperphagia (increased food intake) [3]: no; body temperature / hypothermia, compound alone [4]: no; isolation-induced ultrasonic calls [5]: strongly reduced; effect on acetylcholinesterase activity (in words) [6]: did not affect; AChE: maximal concentration of FAAH inhibitor tested ([6]; Table 2): >100 µM; catalepsy (rigid immobility) (Catalepsy): no catalepsy; effect on butyryl cholinesterase activity (in words) [7]: did not affect; BCh SI (maximal concentration tested/IC50 for FAAH) ([7]; Table 2): ≧333; BCh: maximal concentration of FAAH inhibitor tested ([7]; Table 2): >100 µM; accumulation of non-metabolized [3H]anandamide in neurons (rat cortical neurons; 4-min incubation, UCM532 3 μM, UCM597 10 nM, AM404 10 μM): promote accumulation; carrier-mediated uptake of [3H]anandamide (rat cortical neurons; rat cortical neurons): without reducing; effect on MGL activity (in words) [8]: did not affect; MGL SI (maximal concentration tested/IC50 for FAAH) ([8]; Table 2): ≧100; MGL: maximal concentration of FAAH inhibitor tested ([8]; Table 2): >30 µM; AT: maximal concentration of FAAH inhibitor tested (anandamide transport; Table 2): >300 µM; effect on anandamide transport (in words) (anandamide transport; human astrocytoma cells): no effect; antinociceptive effect, formalin test, compared with UCM597 (Mouse formalin test): mimicked, albeit less effectively; IC50 (FAAH [9]; Table 3, read-out: Amidohydrolase IC50): 400 nM; IC50 (FAAH [9]; Table 4, FAAH IC50, read-out: Inhibition of Amidohydrolase IC50): 300 nM; mode of FAAH inhibition (kinetic analyses and dialysis experiments) (FAAH [9]; data not shown): irreversible interaction; IC50 (FAAH [9]; rat brain membranes, read-out: IC50): 396 ± 63 nM; IC50 [10]: > 30 µM; antinociceptive effect, hot-plate test, compared with UCM597 (Mouse hot-plate test): mimicked, albeit less effectively; ED50 (brain FAAH activity): 0.6 ± 0.09 mg/kg
